Measurements from paper PMC10762035, “Molecular basis of human trace amine-associated receptor 1 activation” (Nature Communications, 2024).
Residue numbers refer to the chain shown, from its start. Where “and” joins values, the source holds several entries; their conditions need not be identical. Identical values can stand only once. Like-named read-outs stand apart in the source and are kept apart here.

How the values were obtained:
Type in all cases: cell-based
[1] = target: T1, hTA1 C88S (Homo sapiens, UniProt Q96RJ0, C88S); experiment: GloSensor cAMP accumulation assay, C88S mutant; settings: C88S
T1 construct: expressed in transfected cells; host or cells: HEK293T
T1 sequence (Q96RJ0 1-339 C88S): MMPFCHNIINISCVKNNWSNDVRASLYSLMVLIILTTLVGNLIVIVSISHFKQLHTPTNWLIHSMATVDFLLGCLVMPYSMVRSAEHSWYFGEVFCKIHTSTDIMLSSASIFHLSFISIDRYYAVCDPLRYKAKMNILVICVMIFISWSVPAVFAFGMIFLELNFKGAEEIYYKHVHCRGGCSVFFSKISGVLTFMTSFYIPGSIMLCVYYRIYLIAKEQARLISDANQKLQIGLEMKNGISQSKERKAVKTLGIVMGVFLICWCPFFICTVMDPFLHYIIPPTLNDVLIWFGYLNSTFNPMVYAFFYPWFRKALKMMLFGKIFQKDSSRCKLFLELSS

[2] = target: T2, hTA1 S107C (Homo sapiens, UniProt Q96RJ0, S107C); experiment: GloSensor cAMP accumulation assay, S107C mutant;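 further: cells transiently co-expressing receptor and GloSensor biosensor, luminescence read after 30 min agonist exposure at room temperature, concentration-response fitted by nonlinear regression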
T2 construct: expressed in transfected cells; host or cells: HEK293T
T2 sequence (Q96RJ0 1-339 S107C): T1 sequence (Q96RJ0 1-339 C88S) with S88C, S107C

[3] = target: T3, hTA1 T271A (Homo sapiens, UniProt Q96RJ0, T271A); experiment: GloSensor cAMP accumulation assay, T271A mutant
T3 construct: expressed in transfected cells; host or cells: HEK293T
T3 sequence (Q96RJ0 1-339 T271A): T1 sequence (Q96RJ0 1-339 C88S) with S88C, T271A

[4] = target: T4, hTA1 I290Y (Homo sapiens, UniProt Q96RJ0, I290Y); experiment: GloSensor cAMP accumulation assay, I290Y mutant; settings: for cAMP accumulation response, normalized (concentration-response source data, single replicate values): hTA1 I290Y (N=3), log[Compound];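 on cAMP accumulation response, normalized (concentration-response source data, single replicate values): normalized to the maximum response of β-PEA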
T4 construct: expressed in transfected cells; host or cells: HEK293T
T4 sequence (Q96RJ0 1-339 I290Y): T1 sequence (Q96RJ0 1-339 C88S) with S88C, I290Y

[5] = target: T5, hTA1 F195T (Homo sapiens, UniProt Q96RJ0, F195T); experiment: GloSensor cAMP accumulation assay, F195T mutant;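 further: cells transiently co-expressing HA-FLAG-tagged hTA1 and the GloSensor cAMP biosensor, luminescence read 30 min after agonist addition at room temperature, concentration-response fitted by nonlinear regression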
T5 construct: expressed in transfected cells; host or cells: HEK293T
T5 sequence (Q96RJ0 1-339 F195T): T1 sequence (Q96RJ0 1-339 C88S) with S88C, F195T

NCCc1ccc(O)cc1 [TYR, tyramine]
Emax values ([1]; Mean of fit per experiment): 100.851
Emax ([1]; Mean of fit per experiment, read-out: Emax values): 118%
EC50 ([1]; Mean of fit per experiment, read-out: pEC50 values (converted)): 0.442 µM and 0.317 µM
EC50 ([1]; n=2, read-out: EC50): 0.375 µM
Emax ([1]; n=2, read-out: Span ± SEM (Emax normalized to β-PEA)): 109 ± 8.4%
ΔEmax values (each mutant value - WT average) ([2]; S107C mutant minus WT average): 8.654
Emax values, Mean ([2]; S107C mutant, β-PEA = 100, each line an independent experiment, 3 replicates): 107.638 and 133.074
EC50 ([2]; S107C, n=2, read-out: EC50): 0.186 µM
Emax ([2]; S107C, n=2, read-out: Span ± SEM (Emax normalized to β-PEA)): 120%
reduction in potency vs wild type ([3]; T271A): about 10 fold
EC50 ([3]; T271A mutant, Figure 5B, each row one independent experiment (3 replicates), read-out: pEC50 values, Mean (converted)): 7.63 µM and 3.08 µM
Emax values, Mean ([3]; T271A mutant, Figure 5B, β-PEA = 100, each row one independent experiment (3 replicates)): 138.16 and 109.079
EC50 ([3]; T271A, n=2, read-out: EC50): 4.85 µM
Emax ([3]; T271A, n=2, read-out: Span ± SEM (Emax normalized to β-PEA)): 124%
EC50 ([4]; I290Y, read-out: EC50): 1.96 µM
Emax ([4]; I290Y, read-out: Span ± SEM (Emax normalized to β-PEA)): 99 ± 3.2%
EC50 ([4]; I290Y, single experiments (3 replicates each), read-out: pEC50 values, Mean (converted)): 2.12 µM and 1.01 µM and 3.55 µM
Emax values, Mean ([4]; I290Y, single experiments (3 replicates each), β-PEA = 100): 103.315 and 92.7474 and 100.92
cAMP accumulation response, normalized (concentration-response source data, single replicate values) ([4]; M = -5): 70.7589 and 112.926 and 76.6069 and 77.3087 and 89.0347 and 68.1478 and 71.4902 and 86.1539 and 63.5944
cAMP accumulation response, normalized (concentration-response source data, single replicate values) ([4]; M = -5.522): 50.1368 and 56.2927 and 58.1394 and 72.545 (2×) and 68.5142 and 46.6748 and 35.395 and 37.651
cAMP accumulation response, normalized (concentration-response source data, single replicate values) ([4]; M = -6): 26.4369 and 46.4433 and 36.2862 and 39.5657 and 32.9698 and 41.0314 and 25.2433 and 19.6034 and 27.4992
cAMP accumulation response, normalized (concentration-response source data, single replicate values) ([4]; M = -6.522): 10.4317 and 18.1265 and 13.2018 and 24.1753 and 16.4801 and 23.4424 and 9.4516 (2×) and 6.068
cAMP accumulation response, normalized (concentration-response source data, single replicate values) ([4]; M = -7): 2.737 and 6.123 and 3.045 and 3.288 (2×) and 0.7233 and 1.556 and -0.7002 and 0.4278
cAMP accumulation response, normalized (concentration-response source data, single replicate values) ([4]; M = -7.522): 0.8902 and 0.2746 and -1.88 and -4.407 and -4.773 and -3.674 and -4.0841 and -1.828 and -2.956
cAMP accumulation response, normalized (concentration-response source data, single replicate values) ([4]; M = -8): -1.264 and 0.8902 and -0.6488 and -2.575 and -3.307 (2×) and -4.0841 (2×) and -5.212
cAMP accumulation response, normalized (concentration-response source data, single replicate values) ([4]; M = -8.522): -1.264 and -0.0332 and 0.5824 and -4.407 and -3.674 and -2.956 (2×) and -4.0841
cAMP accumulation response, normalized (concentration-response source data, single replicate values) ([4]; M = -9): -3.7267 and 0.8902 and -1.88 and 1.823 and 4.021 and -3.674 and -1.828 and -2.956 and -4.0841
cAMP accumulation response, normalized (concentration-response source data, single replicate values) ([4]; M = -9.522): -3.419 and -0.6488 and -1.88 and -6.239 and -4.407 and -2.208 and -2.956 (2×) and -5.212
cAMP accumulation response, normalized (concentration-response source data, single replicate values) ([4]; M = -10): -1.88 and -0.9566 and -1.572 and -6.605 and -4.407 and -2.956 (2×) and -1.828
cAMP accumulation response, normalized (concentration-response source data, single replicate values) ([4]; M = -10.522): -1.572 (2×) and 0.5824
increase in potency vs wild type ([5]; F195T): 26 fold
EC50 ([5]; F195T mutant, Figure 5B, each row one independent experiment (3 replicates), read-out: pEC50 values, Mean (converted)): 0.0102 µM and 0.0246 µM
Emax values, Mean ([5]; F195T mutant, Figure 5B, β-PEA = 100, each row one independent experiment (3 replicates)): 119.677 and 98.2455
EC50 ([5]; F195T, n=2, read-out: EC50): 0.00634 µM
Emax ([5]; F195T, n=2, read-out: Span ± SEM (Emax normalized to β-PEA)): 109%
